# Measured values from patent publication EP4745135A1 (Gluetacs Therapeutics (Shanghai) Co., Ltd., priority 2023, dated 2025).
# Legend:
# CK1α = biological target: T1, CK1α (Homo sapiens, UniProt P48729+Q96SW2); test: Western blot, degradation of substrate protein in hPBMCs; format: cell-based
# T1 construct: effects of the compounds of the present disclosure on the expression of target proteins in cells; endogenous in cells; host or cells: human PBMCs (Milecell Biotechnologies)
# WEE1 = biological target: T2, WEE1 (Homo sapiens, UniProt P30291+Q96SW2); test: as above; format: cell-based
# T2 construct: effects of the compounds of the present disclosure on the expression of target proteins in cells; endogenous in cells; host or cells: human PBMCs (Milecell Biotechnologies)
# IKZF1 = biological target: T3, IKZF1 (Homo sapiens, UniProt Q13422+Q96SW2); test: as above; format: cell-based
# T3 construct: effects of the compounds of the present disclosure on the expression of target proteins in cells; endogenous in cells; host or cells: human PBMCs (Milecell Biotechnologies)
# IKZF3 = biological target: T4, IKZF3 (Homo sapiens, UniProt Q96SW2+Q9UKT9); test: as above; format: cell-based
# T4 construct: effects of the compounds of the present disclosure on the expression of target proteins in cells; endogenous in cells; host or cells: human PBMCs (Milecell Biotechnologies)
# IKZF2 = biological target: T5, IKZF2 (Homo sapiens, UniProt Q96SW2+Q9UKS7); test: as above; format: cell-based
# T5 construct: effects of the compounds of the present disclosure on the expression of target proteins in cells; endogenous in cells; host or cells: human PBMCs (Milecell Biotechnologies)
# [1] = system: Human multiple myeloma cell (MM.1S); test: Tumor cell proliferation inhibition (CellTiter-Meiluncell luminescent cell viability assay); conditions: for inhibition at 0.01 µM / inhibition at 0.5 µM: Homo sapiens, MM1.S, 96 h; for inhibition at 0.01 µM: read-out: Inhibition Rate at 10 nM (%); for Inhibition Rate at 500 nM (%): MM.1S, 96 hours; for inhibition at 0.5 µM: read-out: Inhibition Rate at 500 nM (%)
# [2] = biological target: T6, human Cereblon WT GST-tagged protein (Homo sapiens, UniProt Q96SW2); test: CRBN-binding affinity, HTRF (CEREBLON BINDING kit); conditions: for inhibition at 0.5 µM: read-out: Inhibition Rate at 0.5 µM (%); for inhibition at 2 µM: read-out: Inhibition Rate at 2 µM (%)
# T6 construct: purchased CISBIO 64BDCRBNPEH
# GSPT1 = test: Western blot, degradation of substrate protein in hPBMCs; format: cell-based, Human
# [3] = system: Human acute T lymphocytic leukemia cell (Molt4); test: Tumor cell proliferation inhibition (CellTiter-Meiluncell luminescent cell viability assay); conditions: MOLT-4, 96 h; for inhibition at 0.01 µM: read-out: Inhibition Rate at 10 nM (%); for inhibition at 0.5 µM: read-out: Inhibition Rate at 500 nM (%)
# [4] = system: Human myeloid monocytic leukemia cell (MV-4-11); test: as above; conditions: MV4-11, 96 h; for inhibition at 0.01 µM: read-out: Inhibition Rate at 10 nM (%); for inhibition at 0.5 µM: read-out: Inhibition Rate at 500 nM (%)
# [5] = 24 hours treatment, compounds at 50 nM and 500 nM (concentration behind the class not stated)
# [6] = Western blot, 24 hours of compound treatment, compounds tested at 50 nM and 500 nM (concentration for the table not stated)
# T4 sequence (Q9UKT9 whole entry): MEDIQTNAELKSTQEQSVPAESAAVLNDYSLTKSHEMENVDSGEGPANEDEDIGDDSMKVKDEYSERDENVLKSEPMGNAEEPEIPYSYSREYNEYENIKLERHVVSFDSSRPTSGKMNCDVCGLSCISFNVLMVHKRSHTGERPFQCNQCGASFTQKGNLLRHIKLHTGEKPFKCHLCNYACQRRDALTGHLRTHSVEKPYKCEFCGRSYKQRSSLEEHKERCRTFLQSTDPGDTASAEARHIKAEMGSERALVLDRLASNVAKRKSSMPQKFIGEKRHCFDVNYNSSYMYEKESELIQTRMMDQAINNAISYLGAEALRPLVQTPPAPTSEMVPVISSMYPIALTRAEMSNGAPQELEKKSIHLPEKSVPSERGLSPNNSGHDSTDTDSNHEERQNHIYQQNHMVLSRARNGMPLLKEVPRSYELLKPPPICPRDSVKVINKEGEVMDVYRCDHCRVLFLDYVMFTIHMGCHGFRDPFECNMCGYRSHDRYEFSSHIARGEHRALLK
# T4 sequence (Q96SW2 whole entry): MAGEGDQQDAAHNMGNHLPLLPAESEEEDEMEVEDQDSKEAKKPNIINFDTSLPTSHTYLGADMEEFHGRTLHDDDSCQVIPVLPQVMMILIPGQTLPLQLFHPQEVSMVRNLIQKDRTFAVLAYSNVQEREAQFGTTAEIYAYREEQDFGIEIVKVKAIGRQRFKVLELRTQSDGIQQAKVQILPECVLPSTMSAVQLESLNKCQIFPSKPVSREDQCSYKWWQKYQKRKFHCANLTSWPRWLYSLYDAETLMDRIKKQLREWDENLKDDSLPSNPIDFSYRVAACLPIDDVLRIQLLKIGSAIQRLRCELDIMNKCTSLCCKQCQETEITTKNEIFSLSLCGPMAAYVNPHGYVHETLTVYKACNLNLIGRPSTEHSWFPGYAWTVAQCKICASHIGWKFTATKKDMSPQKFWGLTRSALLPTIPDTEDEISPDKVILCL
# T4 sequence (Q16531 whole entry partner): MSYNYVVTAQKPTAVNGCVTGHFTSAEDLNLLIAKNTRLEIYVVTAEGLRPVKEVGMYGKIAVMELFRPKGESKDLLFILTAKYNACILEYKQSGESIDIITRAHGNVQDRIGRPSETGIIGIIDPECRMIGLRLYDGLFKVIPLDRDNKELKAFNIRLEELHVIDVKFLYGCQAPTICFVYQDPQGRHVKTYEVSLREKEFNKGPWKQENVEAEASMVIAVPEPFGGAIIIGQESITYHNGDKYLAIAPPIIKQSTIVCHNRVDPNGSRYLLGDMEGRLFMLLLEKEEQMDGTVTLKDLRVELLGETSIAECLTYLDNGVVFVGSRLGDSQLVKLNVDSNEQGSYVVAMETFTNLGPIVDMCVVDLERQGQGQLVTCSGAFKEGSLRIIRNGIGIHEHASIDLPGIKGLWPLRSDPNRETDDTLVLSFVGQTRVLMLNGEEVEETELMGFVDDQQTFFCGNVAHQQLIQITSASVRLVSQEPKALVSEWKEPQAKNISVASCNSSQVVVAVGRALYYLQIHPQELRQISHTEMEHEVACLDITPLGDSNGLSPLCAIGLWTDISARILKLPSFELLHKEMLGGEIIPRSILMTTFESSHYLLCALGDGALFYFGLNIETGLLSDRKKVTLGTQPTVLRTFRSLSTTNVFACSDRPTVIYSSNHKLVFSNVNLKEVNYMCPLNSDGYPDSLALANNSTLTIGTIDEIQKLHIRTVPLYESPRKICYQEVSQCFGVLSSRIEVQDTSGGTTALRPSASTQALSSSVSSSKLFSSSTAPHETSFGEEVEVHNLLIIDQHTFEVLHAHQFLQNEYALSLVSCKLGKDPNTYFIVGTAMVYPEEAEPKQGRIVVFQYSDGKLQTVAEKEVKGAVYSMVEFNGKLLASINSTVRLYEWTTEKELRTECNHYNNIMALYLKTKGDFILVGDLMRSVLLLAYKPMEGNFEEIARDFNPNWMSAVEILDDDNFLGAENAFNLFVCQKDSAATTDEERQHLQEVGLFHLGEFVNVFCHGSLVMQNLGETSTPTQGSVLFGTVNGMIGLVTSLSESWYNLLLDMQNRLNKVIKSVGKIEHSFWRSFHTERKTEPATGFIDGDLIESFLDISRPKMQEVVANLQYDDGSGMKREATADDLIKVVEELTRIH
# T3 sequence (Q13422 whole entry): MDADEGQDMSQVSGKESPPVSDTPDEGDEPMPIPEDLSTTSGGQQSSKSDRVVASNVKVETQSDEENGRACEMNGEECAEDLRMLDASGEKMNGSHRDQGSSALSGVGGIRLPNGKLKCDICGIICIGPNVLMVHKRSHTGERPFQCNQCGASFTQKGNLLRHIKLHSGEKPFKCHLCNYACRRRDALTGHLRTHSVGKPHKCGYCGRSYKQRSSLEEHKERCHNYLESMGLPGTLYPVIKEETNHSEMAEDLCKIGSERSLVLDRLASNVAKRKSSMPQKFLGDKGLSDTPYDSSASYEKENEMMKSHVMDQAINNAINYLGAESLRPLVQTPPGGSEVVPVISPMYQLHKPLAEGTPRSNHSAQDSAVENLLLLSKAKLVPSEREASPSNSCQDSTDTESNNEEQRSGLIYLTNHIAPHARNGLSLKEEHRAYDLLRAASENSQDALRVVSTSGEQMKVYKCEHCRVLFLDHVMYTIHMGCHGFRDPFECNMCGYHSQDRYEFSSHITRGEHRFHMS
# T3 sequence (Q96SW2 whole entry): as the sequence (Q96SW2 whole entry) above
# T3 sequence (Q16531 whole entry partner): as the sequence (Q16531 whole entry partner) above
# T6 sequence (Q96SW2 whole entry): as the sequence (Q96SW2 whole entry) above
# T5 sequence (Q9UKS7 whole entry): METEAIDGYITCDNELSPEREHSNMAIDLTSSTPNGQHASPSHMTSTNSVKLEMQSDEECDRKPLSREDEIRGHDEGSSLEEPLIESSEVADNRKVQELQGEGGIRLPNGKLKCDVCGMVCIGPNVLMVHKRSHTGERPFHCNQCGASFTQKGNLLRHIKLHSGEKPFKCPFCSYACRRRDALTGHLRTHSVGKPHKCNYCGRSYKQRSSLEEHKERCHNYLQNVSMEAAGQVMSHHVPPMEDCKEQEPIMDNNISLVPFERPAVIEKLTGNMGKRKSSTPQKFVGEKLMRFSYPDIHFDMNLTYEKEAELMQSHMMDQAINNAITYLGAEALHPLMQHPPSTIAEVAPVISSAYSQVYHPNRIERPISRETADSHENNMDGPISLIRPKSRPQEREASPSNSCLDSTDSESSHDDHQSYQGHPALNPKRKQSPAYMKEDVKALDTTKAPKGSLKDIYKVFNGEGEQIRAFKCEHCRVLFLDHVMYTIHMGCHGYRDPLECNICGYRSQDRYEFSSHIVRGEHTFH
# T5 sequence (Q96SW2 whole entry): as the sequence (Q96SW2 whole entry) above
# T5 sequence (Q16531 whole entry partner): as the sequence (Q16531 whole entry partner) above
# T2 sequence (P30291 whole entry): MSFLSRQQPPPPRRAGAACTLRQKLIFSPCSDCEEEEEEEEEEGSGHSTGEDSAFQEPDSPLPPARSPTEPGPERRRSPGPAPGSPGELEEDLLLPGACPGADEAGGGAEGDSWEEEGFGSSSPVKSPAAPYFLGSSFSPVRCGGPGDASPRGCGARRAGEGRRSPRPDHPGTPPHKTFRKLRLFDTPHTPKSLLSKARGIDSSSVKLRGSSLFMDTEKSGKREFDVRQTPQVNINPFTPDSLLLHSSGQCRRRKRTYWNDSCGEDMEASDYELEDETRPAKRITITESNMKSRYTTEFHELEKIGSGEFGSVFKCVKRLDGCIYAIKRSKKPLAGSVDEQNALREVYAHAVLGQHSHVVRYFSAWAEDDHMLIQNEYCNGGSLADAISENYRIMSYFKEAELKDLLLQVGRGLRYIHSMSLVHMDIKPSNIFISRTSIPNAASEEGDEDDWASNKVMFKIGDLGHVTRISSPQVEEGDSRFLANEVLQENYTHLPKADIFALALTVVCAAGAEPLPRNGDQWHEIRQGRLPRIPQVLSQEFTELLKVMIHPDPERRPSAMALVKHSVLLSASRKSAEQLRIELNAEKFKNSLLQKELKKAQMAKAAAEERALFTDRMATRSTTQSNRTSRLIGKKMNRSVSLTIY
# T2 sequence (Q96SW2 whole entry): as the sequence (Q96SW2 whole entry) above
# T2 sequence (Q16531 whole entry partner): as the sequence (Q16531 whole entry partner) above
# T1 sequence (P48729 whole entry): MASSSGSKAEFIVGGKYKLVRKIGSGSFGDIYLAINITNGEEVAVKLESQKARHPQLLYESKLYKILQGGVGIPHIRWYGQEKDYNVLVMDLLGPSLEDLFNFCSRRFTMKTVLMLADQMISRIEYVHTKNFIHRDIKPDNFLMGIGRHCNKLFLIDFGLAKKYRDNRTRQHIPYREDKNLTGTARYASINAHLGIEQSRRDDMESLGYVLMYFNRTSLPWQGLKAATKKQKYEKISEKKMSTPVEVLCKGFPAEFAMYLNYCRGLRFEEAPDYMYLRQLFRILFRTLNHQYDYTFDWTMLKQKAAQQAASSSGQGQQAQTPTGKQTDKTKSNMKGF
# T1 sequence (Q96SW2 whole entry): as the sequence (Q96SW2 whole entry) above
# T1 sequence (Q16531 whole entry partner): as the sequence (Q16531 whole entry partner) above
SMILES,inhibition at 0.01 µM [1],inhibition at 0.5 µM [2],inhibition at 2 µM [2],inhibition at 0.01 µM [3],inhibition at 0.5 µM [3],inhibition at 0.01 µM [4],inhibition at 0.5 µM [4],inhibition at 0.5 µM [1],CK1α substrate protein remaining % (CK1α; [6]),Wee1 substrate protein remaining % (WEE1; [6]),IKZF 1 substrate protein remaining % (IKZF1; [6]),IKZF3 substrate protein remaining % (IKZF3; [6]),IKZF2 substrate protein remaining % (IKZF2; [6]),GSPT1 substrate protein remaining % (GSPT1; [6]),other results
"O=C1CCC(N2Cc3cc(CN4CCC(c5c[nH]c6ncccc56)CC4)ccc3C2=S)C(=O)N1 (centres unmarked) [GT-09268, 3-(5-((4-(1H-pyrrolo[2,3-b]pyridin-3-yl)piperidin-1-yl)methyl)-1-thioxoisoindolin-2-yl)piperidine-2,6-dione]",30 to 40%,53 to 60%,80 to 100%,40 to 50%,40 to 50%,5 to 10%,60 to 80%,,,,,,,,CK1α substrate protein remaining % (CK1α; [5]): B (80%< substrate protein remaining %≤ 100%); Wee1 substrate protein remaining % (WEE1; [5]): B (80%< substrate protein remaining %≤ 100%); IKZF 1 substrate protein remaining % (IKZF1; [5]): B (80%< substrate protein remaining %≤ 100%); IKZF3 substrate protein remaining % (IKZF3; [5]): B (80%< substrate protein remaining %≤ 100%); IKZF2 substrate protein remaining % (IKZF2; [5]): B (80%< substrate protein remaining %≤ 100%); Inhibition Rate at 500 nM (%) [1]: la7; GSPT1 substrate protein remaining % (GSPT1; [5]): A (0% ≤ substrate protein remaining % ≤ 80%)
"O=C1CCC(N2Cc3cc(CN4CCC(c5n[nH]c6cc(F)ccc56)CC4)ccc3C2=S)C(=O)N1 (centres unmarked) [GT-09269, 3-(5-((4-(6-fluoro-1H-indazol-3-yl)piperidin-1-yl)methyl)-1-thioxoisoindolin-2-yl)piperidine-2,6-dione]",5 to 10%,80 to 100%,80 to 100%,30 to 40%,80 to 100%,10 to 18%,80 to 100%,80 to 100%,,,,,,,CK1α substrate protein remaining % (CK1α; [5]): B (80%< substrate protein remaining %≤ 100%); Wee1 substrate protein remaining % (WEE1; [5]): B (80%< substrate protein remaining %≤ 100%); IKZF 1 substrate protein remaining % (IKZF1; [5]): B (80%< substrate protein remaining %≤ 100%); IKZF3 substrate protein remaining % (IKZF3; [5]): B (80%< substrate protein remaining %≤ 100%); IKZF2 substrate protein remaining % (IKZF2; [5]): B (80%< substrate protein remaining %≤ 100%); GSPT1 substrate protein remaining % (GSPT1; [5]): A (0% ≤ substrate protein remaining % ≤ 80%)
"O=C1CCC(N2Cc3cc(CN4CCN(C(c5ccc(F)cc5)c5ccc(F)cc5)CC4)ccc3C2=S)C(=O)N1 (centres unmarked) [GT-07736, 3-(5-((4-(bis(4-fluorophenyl)methyl)piperazin-1-yl)methyl)-1-thioxoisoindolin-2-yl)piperidine-2,6-dione]",10 to 20%,20 to 30%,60 to 80%,10 to 20%,40 to 50%,10 to 18%,40 to 60%,80 to 100%,B (80%< substrate protein remaining %≤ 100%),A (0% ≤ substrate protein remaining % ≤ 80%),A (0% ≤ substrate protein remaining % ≤ 80%),A (0% ≤ substrate protein remaining % ≤ 80%),B (80%< substrate protein remaining %≤ 100%),A (0% ≤ substrate protein remaining % ≤ 80%),
"O=C1CCC(N2Cc3cc(CN4CCC(c5nccc(Cl)c5Cl)CC4)ccc3C2=S)C(=O)N1 (centres unmarked) [GT-08488, 3-(5-((4-(3,4-dichloropyridin-2-yl)piperidin-1-yl)methyl)-1-thioxoisoindolin-2-yl)piperidine-2,6-dione]",10 to 20%,60 to 80%,80 to 100%,10 to 20%,70 to 80%,18 to 25%,80 to 100%,,B (80%< substrate protein remaining %≤ 100%),B (80%< substrate protein remaining %≤ 100%),B (80%< substrate protein remaining %≤ 100%),B (80%< substrate protein remaining %≤ 100%),B (80%< substrate protein remaining %≤ 100%),A (0% ≤ substrate protein remaining % ≤ 80%),Inhibition Rate at 500 nM (%) [1]: la8
"Cc1ccc(N2CCN(Cc3ccc4c(c3)CN(C3CCC(=O)NC3=O)C4=S)CC2)cc1 (centres unmarked) [GT-08603, 3-(1-thioxo-5-((4-(p-tolyl)piperazin-1-yl)methyl)isoindolin-2-yl)piperidine-2,6-dione]",30 to 40%,53 to 60%,80 to 100%,0 to 5%,40 to 50%,40 to 60%,80 to 100%,50 to 60%,B (80%< substrate protein remaining %≤ 100%),B (80%< substrate protein remaining %≤ 100%),B (80%< substrate protein remaining %≤ 100%),B (80%< substrate protein remaining %≤ 100%),B (80%< substrate protein remaining %≤ 100%),A (0% ≤ substrate protein remaining % ≤ 80%),
"O=C1CCC(N2Cc3cc(CN4CCC(c5ccccc5)CC4)ccc3C2=S)C(=O)N1 (centres unmarked) [GT-08616, 3-(5-((4-phenylpiperidin-1-yl)methyl)-1-thioxoisoindolin-2-yl)piperidine-2,6-dione]",20 to 30%,53 to 60%,80 to 100%,10 to 20%,40 to 50%,-5 to 0%,60 to 80%,50 to 60%,B (80%< substrate protein remaining %≤ 100%),B (80%< substrate protein remaining %≤ 100%),B (80%< substrate protein remaining %≤ 100%),B (80%< substrate protein remaining %≤ 100%),B (80%< substrate protein remaining %≤ 100%),A (0% ≤ substrate protein remaining % ≤ 80%),
"O=C1CCC(N2Cc3cc(CN4CCC(c5ccccc5C(F)(F)F)CC4)ccc3C2=S)C(=O)N1 (centres unmarked) [GT-08622, 3-(1-thioxo-5-((4-(2-(trifluoromethyl)phenyl)piperidin-1-yl)methyl)isoindolin-2-yl)piperidine-2,6-dione]",10 to 20%,40 to 53%,80 to 100%,-5 to 0%,80 to 100%,10 to 18%,80 to 100%,70 to 80%,B (80%< substrate protein remaining %≤ 100%),B (80%< substrate protein remaining %≤ 100%),B (80%< substrate protein remaining %≤ 100%),B (80%< substrate protein remaining %≤ 100%),A (0% ≤ substrate protein remaining % ≤ 80%),A (0% ≤ substrate protein remaining % ≤ 80%),
